In PMC8218918, “The Cyr61 Is a Potential Target for Rotundifuran, a Natural Labdane-Type Diterpene from Vitex trifolia L., to Trigger Apoptosis of Cervical Cancer Cells” (Oxidative Medicine and Cellular Longevity, 2021):

Target: T1, Cyr61 (Homo sapiens, UniProt O00622)
T1 construct: gene CCN1; Cyr61 protein (Mammalian, C-Fc)
T1 sequence (O00622 25-381): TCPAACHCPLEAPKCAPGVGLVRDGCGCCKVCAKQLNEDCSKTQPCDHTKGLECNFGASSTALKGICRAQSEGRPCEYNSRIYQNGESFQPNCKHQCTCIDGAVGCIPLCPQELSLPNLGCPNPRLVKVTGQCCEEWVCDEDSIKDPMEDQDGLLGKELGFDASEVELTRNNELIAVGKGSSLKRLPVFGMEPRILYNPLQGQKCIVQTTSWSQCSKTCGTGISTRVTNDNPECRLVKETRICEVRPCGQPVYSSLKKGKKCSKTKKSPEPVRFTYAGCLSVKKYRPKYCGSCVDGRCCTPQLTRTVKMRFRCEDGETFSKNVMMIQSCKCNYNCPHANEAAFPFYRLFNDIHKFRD
Assay: Microscale thermophoresis with RED-NHS labelled recombinant Cyr61; supported by DARTS and CETSA in HeLa cells
Type: binding

Kd: 3.8 ± 4.5 µM
SMILES: CC(=O)O[C@@H]1C[C@@H](C)[C@](O)(CCc2ccoc2)[C@@]2(C)CCCC(C)(C)[C@H]12 [RTF, Rotundifuran]
